“Also recorded” adds a separate entry of the source.

For one assay, the system named is mice. Briefly: Neurological symptoms / clinical phenotype in mice given peptide. The assay is classed as in vivo, mouse. Particulars: for neurological symptoms (paralysis from spinal cord inflammation, visual impairment from optic nerve inflammation): mice administered the peptide; for clinical phenotype / autoimmune neurological disease after immunization: immunized AQP4 null mice.

The next assay deals with AQP4 null mice. Briefly: Antibody production against AQP4 extracellular loop peptides after immunization. The note with it: AQP4 null mice immunized with the peptides. The format is in vivo, mouse.
The test system of a further assay is T cells. Briefly: T cell proliferation assay (3H-thymidine incorporation) with spleen cells of immunized mice. The format is cell-based, mouse. The note with it: for T cell response against the peptide: T cells from AQP4 null mice immunized with AQP4 loop peptides.
Assay [1] concerns IL-17 and interferon-gamma (IFN-γ) cytokine-producing cells. Briefly: ELISPOT assay of cytokine-producing cells. The format is cell-based, mouse. The protocol:
ELISPOT assay was used to determine the frequency of cytokine-producing cells in polarized and unpolarized cell cultures. The day before cells were to be harvested from immunized AQP4 null mice, the wells of an immobilon P-bottom 96-well plates (Multiscreen®HTS, 0.45 μm pore size; EMB Millipore, USA) were pre-wet with 35% ethanol for 30 seconds, washed three times with coating buffer, and coated with 50 μl of a 1:250 dilution of capture antibody, anti-IL17 (Th17), provided with ELISPOT Ready-Set-Go kits (eBioscience). Plates were covered and incubated overnight at 4° C. Wells were then washed twice with coating buffer and once with complete media; plates were stored in the incubator until cells were prepared. Spleen and lymph node cells were prepared as described above and prepared with and without polarizing conditions. Harvested cells were 2-fold serially diluted in media containing 3×10^7 irradiated splenocytes (irradiated with 3,500 rads) as antigen-presenting cells (APCs); APCs mixed 12:1 with 1.25×10^5 lymph node cells per well yielded the most well-defined spots. After overnight in culture, wells were washed (TBS+0.05% Tween®-20). Detection antibody was diluted 1:250 in diluents provided in the kit and 50 μl applied to each well for 2 hours at RT. After washing, streptavidin-alkaline phosphatase was added to each well (1:2500; Sigma) for 45 minutes. After further washing, signal was developed with development solution containing BCIP and NBT (i.e. 150 mM Tris-HCl, 5 mM MgCl2, 100 mM NaCl, pH9.5 supplemented with 4 mM levamisole (Sigma), 0.15 mg/ml 5-bromo-4-chloro-3-indolyl-phosphate, and 0.36 mg/ml 4-nitro blue tetrazolium chloride (Roche) for 10 minutes at room temperature in the dark. Reaction was stopped by washing with PBS then distilled H2O before air drying. Spots were imaged with an Immunospot Series 3 Analyzer (Cellular Technology, Ltd.) and counted using Image J and the “find Maxima” function. Results are expressed as the mean of triplicate values (±standard error of the mean, SEM) adjusted to per 10^6 cells per well. Student's t-test was performed on data; p<0.05 was considered statistically significant.

[2] abbreviates: after polarization to Th17 phenotype, exposed to peptide.
[3] abbreviates: after polarization to Th17 phenotype, exposed to peptide, listed as AQP4135-53.
Where [4] appears, read: unpolarized cell culture exposed to peptide, versus no stimulation.
Setting [5] is: unpolarized cell culture exposed to peptide, versus no stimulation, listed as AQP4135-53.

In the case of “GILYLVTPPSVVGGLGVTMV [SEQ ID NO: 9, reference compound]”, in the assay with mice, the “neurological symptoms (paralysis from spinal cord inflammation, visual impairment from optic nerve inflammation)” value is “no such neurological symptoms”.
For “GNWENH (listed as Homo sapiens) [loop E, AQP4 extracellular loop E peptide (human 212-30 used)]”, in the assay on AQP4 null mice, the “antibody production against the loop peptide” value (from here on “antibody production”) was “no evidence of antibody production”.
Still for that read-out and setting: under “GTEKPLPV (listed as Homo sapiens) [loop A, AQP4 extracellular loop A peptide (human 56-69 used)]” stands “no evidence of antibody production”.
Turning to LVTPPSVVGGLGVTMVHGN [SEQ ID NO: 8], the “T cell response against the peptide” value in the assay with T cells is “remarkable T cell response; also recorded: robust T cell response; also recorded: robust reaction”. Besides, the “clinical phenotype / autoimmune neurological disease after immunization” value in the assay on mice is on record as “did not develop autoimmune neurological disease”. For the same substance, the “neurological symptoms (paralysis from spinal cord inflammation, visual impairment from optic nerve inflammation)” value with mice is “development of phenotypes”. Besides, the “number of IFN-γ producing cells” value in assay [1] (setting [2]) is reported as “barely detectable”; in assay [1] (setting [3]), “nearly undetectable”; in assay [1] (setting [4]), “significant number”; in assay [1] (setting [5]), “significant levels”. For the same substance, the “number of IL-17 producing cells” value in assay [1] (setting [2]) is recorded as “doubled”; in assay [1] (setting [3]) it was “almost doubled”; in assay [1] (setting [4]), “significant number”; in assay [1] (setting [5]), “significant levels”. Besides, in the assay on AQP4 null mice, the “antibody production” value is “no evidence of antibody production”.
For the substance “MOG peptide 35-55: myelin-oligodendrocyte glycoprotein (MOG) peptide 35-55 (MEVGWYRSPFSRVVHLYRNGK; UniProt Q61885 63-83, looked up, fragment) [reference compound]”, in the assay with T cells (T cells from control wildtype mice (wt-MOG) immunized with MOG peptide 35-55), the “T cell proliferative activity (incorporation of tritiated-thymidine)” value is recorded as “showed proliferative activity”.
With “TPPSVVGGLGVTMVHGNLTAG (listed as Homo sapiens) [loop C, peptide corresponding to the second extracellular loop of AQP4]”, the “T cell response against the peptide” value in the assay on T cells was “robust T cell response”; in the assay with T cells (listed as loop C peptide) it was “robust T cell response; also recorded: stimulated a T cell response”. Further, the “clinical phenotype / autoimmune neurological disease after immunization” value with mice was “no clinical phenotype”. The “antibody production” value in the assay on AQP4 null mice is “No evidence of antibody production”.
